Experimental data from PMC6796924 (ACS Omega, 2019).
Several values for one entry are separate records, joined by “and”; a condition that tells them apart may be missing. Equal values may be shown once.

Experiments:
[1] = In vitro BBB permeability, BBB Kit; format: in vitro ADME; conditions: Wistar, rat
[2] = PK study after intranasal administration; format: in vivo, mice; conditions: for concentration at 5 min / concentration at 15 min / concentration at 30 min / concentration at 45 min: other: intranasal, drug concentration in plasma; for Tmax at 7 days / Cmax at 7 days: 32.4 ug; for AUC(0-t): AUC0–t; for half-life: T1/2, plasma
[3] = pH 6.8; cited from earlier work
[4] = PK study after oral administration; format: in vivo, mice
[5] = Solubility studies of K-604 in different vehicles; format: physicochemical
[6] = 0.01 N HCl solution, 32.4 μg/mouse intranasal vs oral 166 μg/mouse, cerebrum
[7] = CA solution, 108 μg/mouse intranasal vs oral 166 μg/mouse, cerebrum
[8] = GA solution, 108 μg/mouse intranasal vs oral 166 μg/mouse, cerebrum
[9] = HA solution, 108 μg/mouse intranasal vs oral 166 μg/mouse, cerebrum
[10] = female, Crl:CDI (ICR), mouse, plasma, 32.4 μg, repeated intranasal, 0.01 N HCl solution, 10 μL, mice
[11] = female, Crl:CDI (ICR), mouse, plasma, 162 μg, repeated (7 days) intranasal, 0.01 N HCl solution, 50 μL, mice
[12] = female, ICR, mouse, plasma, inhaled or intranasal, 108 ug, single intranasal, CA solution, 108 μg/10 μL, mice
[13] = female, ICR, mouse, plasma, inhaled or intranasal, 108 ug, single intranasal, GA solution, 108 μg/10 μL, mice
[14] = female, ICR, mouse, plasma, inhaled or intranasal, 108 ug, single intranasal, HA solution, 108 μg/10 μL, mice
[15] = repeated (7 days) intranasal, 0.01 N HCl solution, 32.4 μg/10 μL, mice
[16] = single intranasal, CA solution, 108 μg/10 μL, mice
[17] = single intranasal, GA solution, 108 μg/10 μL, mice
[18] = single intranasal, HA solution, 108 μg/10 μL, mice
[19] = female, ICR, mouse, cerebellum, po, 6 mg/kg
[20] = female, ICR, mouse, cerebrum, po, 6 mg/kg
[21] = female, ICR, mouse, plasma, po, 6 mg/kg
[22] = single oral 6 mg/kg (166 μg/mouse), 0.01 N HCl solution, mice

NC(=O)N1c2ccccc2C=Cc2ccccc21 [carbamazepine, 5H-dibenzo[b,f]azepine-5-carboxamide, reference compound]
Papp at 30 min, 1 μM [1]: 47.8 ×10⁻⁶ cm/s

CSc1cc(C)nc(SC)c1NC(=O)CN1CCN(CCSc2nc3ccccc3[nH]2)CC1.Cl [K-604, 2-(4-(2-((1H-Benzo[d]imidazol-2-yl)thio)ethyl)piperazin-1-yl)-N-(6-methyl-2,4-bis(methylthio)pyridin-3-yl)acetamide hydrochloride]
Papp at 30 min, 1 μM [1]: 21.9 ×10⁻⁶ cm/s | intranasal AUC BTE index [2, 6]: 211 | intranasal Cmax BTE index [2, 6]: 134 | drug concentration in plasma relative to cerebral tissue, fold higher ([2]; 5 to 45 min, repeated intranasal, 0.01 N HCl solution, 50 μL, mice): 6- to 10 fold | intranasal AUC BTE index [2, 7]: 133 | intranasal Cmax BTE index [2, 7]: 90 | intranasal AUC BTE index [2, 8]: 100 | intranasal Cmax BTE index [2, 8]: 61 | intranasal AUC BTE index [2, 9]: 137 | intranasal Cmax BTE index [2, 9]: 75 | Tmax ([2]; female, Crl:CD1 (ICR), mouse, cerebrum, inhaled or intranasal, 108 ug): 15 min | Tmax ([2]; female, Crl:CD1 (ICR), mouse, olfactory bulb, inhaled or intranasal, 108 ug): 15 min | Tmax ([2]; female, Crl:CD1 (ICR), mouse, plasma, inhaled or intranasal, 108 ug): 5 min | Cmax ([2]; female, Crl:CDI (ICR), mouse, cerebrum, inhaled or intranasal, 162 ug, cerebrum, repeated (7 days) intranasal, 0.01 N HCl solution, 162 μg/50 μL, mice): 83 ng/g | Cmax ([2]; female, Crl:CDI (ICR), mouse, cerebrum, inhaled or intranasal, 162 ug, cerebrum, single intranasal, 0.01 N HCl solution, 162 μg/50 μL, mice): 66 ng/g | Cmax ([2]; female, Crl:CDI (ICR), mouse, olfactory bulb, inhaled or intranasal, 162 ug, olfactory bulb, repeated (7 days) intranasal, 0.01 N HCl solution, 162 μg/50 μL, mice): 285 ng/g | Cmax ([2]; female, Crl:CDI (ICR), mouse, olfactory bulb, inhaled or intranasal, 162 ug, olfactory bulb, single intranasal, 0.01 N HCl solution, 162 μg/50 μL, mice): 406 ng/g | AUC ([2]; female, Crl:CDI (ICR), mouse, plasma, inhaled or intranasal, 162 ug): 345 ng·h/mL | Cmax ([2]; female, Crl:CDI (ICR), mouse, plasma, inhaled or intranasal, 162 ug, plasma, repeated (7 days) intranasal, 0.01 N HCl solution, 162 μg/50 μL, mice): 870 ng/mL | Cmax ([2]; female, Crl:CDI (ICR), mouse, plasma, inhaled or intranasal, 162 ug, plasma, single intranasal, 0.01 N HCl solution, 162 μg/50 μL, mice): 574 ng/mL | concentration at 5 min [2, 10]: 142 ng/mL | concentration at 15 min [2, 10]: 90 ng/mL | concentration at 30 min [2, 10]: 33 ng/mL | concentration at 45 min [2, 10]: 10 ng/mL | concentration at 5 min [2, 11]: 870 ng/mL | concentration at 15 min [2, 11]: 449 ng/mL | concentration at 30 min [2, 11]: 250 ng/mL | concentration at 45 min [2, 11]: 77 ng/mL | Tmax at 7 days ([2]; female, ICR, mouse, cerebrum, inhaled or intranasal): 5 min | Cmax at 7 days ([2]; female, ICR, mouse, cerebrum, inhaled or intranasal, repeated (7 days) intranasal, 0.01 N HCl solution, 32.4 μg/10 μL, mice): 21 ± 10 ng/g | Tmax ([2]; female, ICR, mouse, cerebrum, inhaled or intranasal, 108 ug): 5 min | Cmax ([2]; female, ICR, mouse, cerebrum, inhaled or intranasal, 108 ug, single intranasal, CA solution, 108 μg/10 μL, mice): 47 ± 29 ng/g | Cmax ([2]; female, ICR, mouse, cerebrum, inhaled or intranasal, 108 ug, single intranasal, GA solution, 108 μg/10 μL, mice): 32 ± 7 ng/g | Cmax ([2]; female, ICR, mouse, cerebrum, inhaled or intranasal, 108 ug, single intranasal, HA solution, 108 μg/10 μL, mice): 39 ± 11 ng/g | Tmax at 7 days ([2]; female, ICR, mouse, olfactory bulb, inhaled or intranasal): 5 min | Cmax at 7 days ([2]; female, ICR, mouse, olfactory bulb, inhaled or intranasal, repeated (7 days) intranasal, 0.01 N HCl solution, 32.4 μg/10 μL, mice): 156 ± 131 ng/g | Tmax ([2]; female, ICR, mouse, olfactory bulb, inhaled or intranasal, 108 ug): 5 min | Cmax ([2]; female, ICR, mouse, olfactory bulb, inhaled or intranasal, 108 ug, single intranasal, CA solution, 108 μg/10 μL, mice): 351 ± 112 ng/g | Cmax ([2]; female, ICR, mouse, olfactory bulb, inhaled or intranasal, 108 ug, single intranasal, GA solution, 108 μg/10 μL, mice): 160 ± 24 ng/g | Cmax ([2]; female, ICR, mouse, olfactory bulb, inhaled or intranasal, 108 ug, single intranasal, HA solution, 108 μg/10 μL, mice): 274 ± 100 ng/g | Tmax at 7 days ([2]; female, ICR, mouse, plasma, inhaled or intranasal): 5 min | Cmax at 7 days ([2]; female, ICR, mouse, plasma, inhaled or intranasal, repeated (7 days) intranasal, 0.01 N HCl solution, 32.4 μg/10 μL, mice): 146 ± 20 ng/mL | Tmax ([2]; female, ICR, mouse, plasma, inhaled or intranasal, 108 ug): 5 min | AUC(0-t) [2, 12]: 165 ng·h/mL | AUC(0-t) [2, 13]: 121 ng·h/mL | AUC(0-t) [2, 14]: 170 ng·h/mL | Cmax [2, 12]: 283 ± 121 ng/mL | Cmax [2, 13]: 217 ± 51 ng/mL | Cmax [2, 14]: 274 ± 30 ng/mL | half-life [2, 12]: 13.4 ± 1.7 min | half-life [2, 13]: 16.6 ± 2.9 min | half-life [2, 14]: 17.4 ± 2.1 min | AUC0–t, cerebrum [2, 15]: 367 ng·min/g and 367 ± 121 ng·min/g | AUC0–t, olfactory bulb [2, 15]: 2113 ± 1380 ng·min/g | AUC0–t, cerebrum [2, 16]: 772 ng·min/g and 772 ± 223 ng·min/g | AUC0–t, olfactory bulb [2, 16]: 3976 ± 642 ng·min/g | Tmax, plasma [2, 16]: 5 min | AUC0–t, cerebrum [2, 17]: 579 ng·min/g and 579 ± 137 ng·min/g | AUC0–t, olfactory bulb [2, 17]: 3406 ± 2127 ng·min/g | AUC0–t, cerebrum [2, 18]: 791 ng·min/g and 791 ± 160 ng·min/g | AUC0–t, olfactory bulb [2, 18]: 5200 ± 1036 ng·min/g | Aqueous solubility [3]: 0.05 mg/mL | Cmax [4, 19]: 0.7 ± 0.3 ng/g | Tmax [4, 19]: 15 min | Cmax [4, 20]: 0.8 ± 0.4 ng/g | Tmax [4, 20]: 15 min | AUC(0-t) [4, 21]: 3.29 ng·h/mL | Cmax [4, 21]: 6.2 ± 3.1 ng/mL | Tmax [4, 21]: 15 min | AUC0–t, cerebellum [4, 22]: 5.4 ± 4.9 ng·min/g | AUC0–t, olfactory bulb [4, 22]: 0 ± 0 ng·min/g | AUC0–t, cerebrum ([4]; single oral 6 mg/kg (166 μg/mouse), 0.01 N HCl solution, mice, 6 mg/kg): 8.9 ng·min/g and 9 ng·min/g and 8.9 ± 7.4 ng·min/g | drug concentrations in cerebrum and cerebellum tissue at 60 min ([4]; single oral 6 mg/kg, mice, LLOQ 0.5 ng/g): less than the lower limit of quantification (LLOQ) | drug concentrations in the olfactory bulb tissue, all time points ([4]; single oral 6 mg/kg, mice, LLOQ 1 ng/g): less than the LLOQ | solubility at 24 h ([5]; CA aqueous solution (additive 7.7 mg, 0.04 M), pH 3, thermodynamic from solid): 10.8 mg/mL | solubility at 24 h ([5]; GA aqueous solution (additive 4 mg, 0.04 M), pH 3.6, thermodynamic from solid): 10.8 mg/mL | solubility at 24 h ([5]; HA aqueous solution (additive 5 mg), pH 3.8, thermodynamic from solid): 10.8 mg/mL | solubility ([5]; water, pH 6.8, water): 0.05 mg/mL
